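96-well plates; 48 h exposure; 5 concentrations. Endpoints by linear interpolation between flanking doses. Not reached: highest tested concentration assigned. Here, GI50 denotes the concentration required for 50% inhibition of growth.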 Activity calls are given as the source filed them. Rule as the data show it: active = GI50 up to about 1.1 µM and inactive = higher.
Columns and labels:
Test in all cases: inhibition of tumour cell growth, NCI panel, 48 h
A549 = test system: A549
MOLT-4 = test system: MOLT-4
K562 = test system: K562
EKVX = test system: EKVX
HCC 2998 = test system: HCC 2998
HCT-116 = test system: HCT-116
NCI/ADR-RES = test system: NCI/ADR-RES
SNB-19 = test system: SNB-19
OVCAR-3 = test system: OVCAR-3
MDA-MB-435 = test system: MDA-MB-435
SK-MEL-2 = test system: SK-MEL-2
HCT-15 = test system: HCT-15
SN12C = test system: SN12C
COLO 205 = test system: COLO 205
RXF 393 = test system: RXF 393
NCI-H522 = test system: NCI-H522
ACHN = test system: ACHN
T47D = test system: T47D
UACC-62 = test system: UACC-62

SMILES	GI50 (A549)	GI50 (MOLT-4)	GI50 (K562)	GI50 (EKVX)	GI50 (HCC 2998)	GI50 (HCT-116)	GI50 (NCI/ADR-RES)	GI50 (SNB-19)	GI50 (OVCAR-3)	GI50 (MDA-MB-435)	GI50 (SK-MEL-2)	GI50 (HCT-15) [µM]	GI50 (SN12C)	GI50 (COLO 205)	GI50 (RXF 393)	GI50 (NCI-H522)	GI50 (ACHN)	GI50 (T47D)	GI50 (UACC-62)
CC(=O)Nc1ccc2cc(C#N)c(=O)[nH]c2n1	> 100 µM (inactive)	> 100 µM (inactive)	> 100 µM (inactive)	> 100 µM (inactive)	> 100 µM (inactive)	> 100 µM (inactive)	> 100 µM (inactive)	> 100 µM (inactive)	> 100 µM (inactive)	> 100 µM (inactive)	> 100 µM (inactive)	> 100	> 100 µM (inactive)	> 100 µM (inactive)	> 100 µM (inactive)	> 100 µM (inactive)	> 100 µM (inactive)	> 100 µM (inactive)	–
O=S1(=O)OC(c2ccc(O)cc2)(c2ccc(O)cc2)c2ccccc21 [PHENOLSULFONPHTHALEIN]	> 100 µM (inactive)	> 100 µM (inactive)	> 100 µM (inactive)	> 100 µM (inactive)	> 100 µM (inactive)	> 100 µM (inactive)	> 100 µM (inactive)	> 100 µM (inactive)	> 100 µM (inactive)	> 100 µM (inactive)	> 100 µM (inactive)	> 100	> 100 µM (inactive)	> 100 µM (inactive)	> 100 µM (inactive)	> 100 µM (inactive)	> 100 µM (inactive)	> 100 µM (inactive)	> 100 µM (inactive)
O=C1/C(=N\NC(=S)Nc2ccc(Cl)cc2)c2cc([N+](=O)[O-])ccc2N1CN1CCOCC1	8.22 µM (inactive)	0.655 µM (active)	–	–	–	4.12 µM (inactive)	2.2 µM (inactive)	7.89 µM (inactive)	3.99 µM (inactive)	6.38 µM (inactive)	13.2 µM (inactive)	3.36	4.12 µM (inactive)	13.2 µM (inactive)	7.19 µM (inactive)	6.79 µM (inactive)	4.73 µM (inactive)	4.37 µM (inactive)	5.31 µM (inactive)
COc1ccc(N2C(=O)CC(C3CC(C(C)(C)C)CCC3=O)C2=O)cc1 (centres undefined)	> 100 µM (inactive)	> 100 µM (inactive)	> 100 µM (inactive)	> 100 µM (inactive)	> 100 µM (inactive)	> 100 µM (inactive)	> 100 µM (inactive)	> 100 µM (inactive)	–	> 100 µM (inactive)	–	> 100	> 100 µM (inactive)	> 100 µM (inactive)	> 100 µM (inactive)	10.7 µM (inactive)	> 100 µM (inactive)	> 100 µM (inactive)	> 100 µM (inactive)
Cc1cc2c(c(S(=O)(=O)c3ccc(Cl)cc3[N+](=O)[O-])c1)NCCC2	38.5 µM (inactive)	–	–	> 100 µM (inactive)	> 100 µM (inactive)	–	37.6 µM (inactive)	> 100 µM (inactive)	> 100 µM (inactive)	42.9 µM (inactive)	> 100 µM (inactive)	70.8	> 100 µM (inactive)	> 100 µM (inactive)	> 100 µM (inactive)	18.2 µM (inactive)	18.3 µM (inactive)	1.84 µM (inactive)	8.11 µM (inactive)
CC(C)CC(Nc1c(O)ccc2ccccc12)C(=O)O (centres undefined)	> 100 µM (inactive)	33 µM (inactive)	58.7 µM (inactive)	17.3 µM (inactive)	25.2 µM (inactive)	27.9 µM (inactive)	37.8 µM (inactive)	37.6 µM (inactive)	20.7 µM (inactive)	17.3 µM (inactive)	17.1 µM (inactive)	36.9	29.3 µM (inactive)	> 100 µM (inactive)	12.9 µM (inactive)	26.3 µM (inactive)	22.9 µM (inactive)	64.7 µM (inactive)	23.8 µM (inactive)
C[N+]1(C)C2CC(OC(=O)C(CO)c3ccccc3)CC1C1OC12 (centres undefined)	> 100 µM (inactive)	> 100 µM (inactive)	> 100 µM (inactive)	> 100 µM (inactive)	–	> 100 µM (inactive)	> 100 µM (inactive)	> 100 µM (inactive)	> 100 µM (inactive)	> 100 µM (inactive)	> 100 µM (inactive)	> 100	> 100 µM (inactive)	> 100 µM (inactive)	> 100 µM (inactive)	> 100 µM (inactive)	> 100 µM (inactive)	> 100 µM (inactive)	> 100 µM (inactive)
Cc1ccc(-c2nc3n(c2/C=N\N=C(N)N)CCS3)cc1	15.9 µM (inactive)	45.8 µM (inactive)	19.8 µM (inactive)	16 µM (inactive)	11.6 µM (inactive)	14.8 µM (inactive)	29.9 µM (inactive)	15.1 µM (inactive)	–	15.5 µM (inactive)	12.9 µM (inactive)	17.5	16.1 µM (inactive)	14.5 µM (inactive)	15.8 µM (inactive)	2.79 µM (inactive)	15 µM (inactive)	13.2 µM (inactive)	18.1 µM (inactive)
CCOC(=O)CCSc1nc2ccc(I)cc2c(=O)n1Cc1ccccc1	31.6 µM (inactive)	–	24 µM (inactive)	22.3 µM (inactive)	26.5 µM (inactive)	18.8 µM (inactive)	23.7 µM (inactive)	38.2 µM (inactive)	17.9 µM (inactive)	27.5 µM (inactive)	31 µM (inactive)	18	31.8 µM (inactive)	12.4 µM (inactive)	26.9 µM (inactive)	10.7 µM (inactive)	29.5 µM (inactive)	26.9 µM (inactive)	27.4 µM (inactive)
CC(C)c1nc(Cl)c(Cl)c(Cl)n1	2.58 µM (inactive)	1.8 µM (inactive)	0.286 µM (active)	11.7 µM (inactive)	3.49 µM (inactive)	1.33 µM (inactive)	5.78 µM (inactive)	18.6 µM (inactive)	1.99 µM (inactive)	4.2 µM (inactive)	–	0.695	4.24 µM (inactive)	2.71 µM (inactive)	2.05 µM (inactive)	0.759 µM (active)	0.769 µM (active)	4.14 µM (inactive)	8.41 µM (inactive)
COc1ccc(C2=Nn3c(C)nnc3S/C2=C\c2ccc(-c3ccc([N+](=O)[O-])cc3)o2)cc1	20 µM (inactive)	3.56 µM (inactive)	3.55 µM (inactive)	27.9 µM (inactive)	7.41 µM (inactive)	11 µM (inactive)	7.85 µM (inactive)	15.6 µM (inactive)	10.9 µM (inactive)	3.78 µM (inactive)	13.3 µM (inactive)	10.9	11 µM (inactive)	–	9.31 µM (inactive)	6.34 µM (inactive)	11.7 µM (inactive)	4.88 µM (inactive)	12.1 µM (inactive)
CC(C)=CC[C@H]1C[C@]2(CC=C(C)C)C(=O)[C@@](CC=C(C)C)(C(=O)C(C(=O)c3ccccc3)=C2O)C1(C)C [6-EPI-CLUSIANONE]	4.94 µM (inactive)	4.56 µM (inactive)	3.87 µM (inactive)	5.05 µM (inactive)	3.85 µM (inactive)	3.63 µM (inactive)	5.33 µM (inactive)	5.21 µM (inactive)	–	5.4 µM (inactive)	2.67 µM (inactive)	5.04	3.49 µM (inactive)	3.94 µM (inactive)	6.75 µM (inactive)	5.38 µM (inactive)	4.88 µM (inactive)	5.2 µM (inactive)	3.44 µM (inactive)
COc1ccc(/C=N/Nc2nnc3c(n2)c2ccccc2c2nn(-c4ccccc4Cl)nc23)cc1	> 100 µM (inactive)	> 100 µM (inactive)	> 100 µM (inactive)	> 100 µM (inactive)	–	> 100 µM (inactive)	> 100 µM (inactive)	> 100 µM (inactive)	> 100 µM (inactive)	> 100 µM (inactive)	> 100 µM (inactive)	> 100	> 100 µM (inactive)	> 100 µM (inactive)	> 100 µM (inactive)	> 100 µM (inactive)	> 100 µM (inactive)	> 100 µM (inactive)	> 100 µM (inactive)
COC(=O)C1C2C=CC(C2)N1S(=O)(=O)c1ccccc1 (centres undefined)	> 100 µM (inactive)	> 100 µM (inactive)	> 100 µM (inactive)	–	–	> 100 µM (inactive)	> 100 µM (inactive)	> 100 µM (inactive)	> 100 µM (inactive)	> 100 µM (inactive)	> 100 µM (inactive)	> 100	> 100 µM (inactive)	> 100 µM (inactive)	> 100 µM (inactive)	> 100 µM (inactive)	> 100 µM (inactive)	> 100 µM (inactive)	> 100 µM (inactive)
CCCC/C=C/C/C=C/CCCCCCCCC(=O)OCC1CCCN2CCCCC12 (centres undefined)	> 100 µM (inactive)	> 100 µM (inactive)	> 100 µM (inactive)	54.6 µM (inactive)	> 100 µM (inactive)	> 100 µM (inactive)	> 100 µM (inactive)	> 100 µM (inactive)	> 100 µM (inactive)	> 100 µM (inactive)	> 100 µM (inactive)	> 100	> 100 µM (inactive)	93.3 µM (inactive)	> 100 µM (inactive)	–	> 100 µM (inactive)	12.8 µM (inactive)	48.6 µM (inactive)
COc1ccc(/C=C2/S/C(=N\c3ccccc3)N(NC(=O)Cc3ccccc3)C2=O)c(OC)c1	> 100 µM (inactive)	68.7 µM (inactive)	89.9 µM (inactive)	> 100 µM (inactive)	82.6 µM (inactive)	> 100 µM (inactive)	> 100 µM (inactive)	> 100 µM (inactive)	> 100 µM (inactive)	> 100 µM (inactive)	> 100 µM (inactive)	> 100	> 100 µM (inactive)	> 100 µM (inactive)	> 100 µM (inactive)	–	> 100 µM (inactive)	43.9 µM (inactive)	> 100 µM (inactive)

From ChEMBL document CHEMBL1201862, “PubChem BioAssay data set” (2004)
